Assay results reported in paper PMC11926880, “Procognitive Potential of Neuroprotective Triazine 5-HT6 Receptor Antagonists Tested on Chronic Activity In Vivo in Rats: Computer-Aided Insight into the Role of Chalcogen-Differences on the Pharmacological Profile” (ACS Chemical Neuroscience, 2025).

Assays:
HepG2 = system: HepG2; parameters: method as in PMID 38190615, PMID 35228010; conditions: tested at 0.1–100 μM; cited from earlier work
rats = assay: NORT after 21 day administration, discrimination index; format: in vivo, rat; conditions: 21 days; for reversal of (+)MK-801-induced memory disturbances (DI): (+)MK-801 0.1 mg/kg
Experimental: Standard laboratory food (LSM-B) and filtered water as well as environment enrichment were freely available. Animals were randomly divided into treatment groups using a computer-based random order generator. All of the experiments were performed by two observers unaware of the treatment applied between 9:00 and 14:00 on separate groups of animals.
In the NOR test (NORT), rats were randomly divided into experimental groups (n = 8/group). […] All compounds were prepared immediately before administration and were injected intraperitoneally (i.p.) in a constant volume of 2 mL/kg. […] The control group received 1% Tween 80 on the same schedule.
The test was carried out according to the method described by Ennaceur.[46] NORT was conducted in two black-painted wood boxes (60 cm × 60 cm × 60 cm). A video camera mounted above the boxes recorded all experiments. Two days before the test, the rats were placed in the empty experimental boxes for 5 min as a habituation to the test area. On the third day, the test was performed in 2 trials lasting for 3 min at one-hour intervals. First session, familiarization (T1) with two identical objects (A1 and A2) located in the opposite corners of the boxes, approximately 10 cm from the walls, and second trial, recognition (T2) with one familiar (A) and one novel object (B). Metal cans and glass jars with sand were used as the objects. The boxes were cleaned and dried after each measurement. The exploration time (E) of the objects (such as looking, licking, sniffing, or touching while sniffing) during T2 was measured, and the discrimination index (DI) was calculated according to the following formula: DI = (EB – EA)/(EA + EB).
The normality of data distribution and the homogeneity of variance were checked using the Shapiro–Wilk’s test and Levene’s test, respectively. All behavioral results are shown as the means ± SEM.

SH-SY5Y cells [1] = assay: MTS assay 72 h, neurotoxic effect; format: cell-based, human; conditions: 10 and 50 μM
Experimental: SHSY5Y cells were grown in DMEM supplemented by 10% FBS, L-glutamine (2 mM), and penicillin (100u/mL)/streptomycin (100 μg/mL). The cell line was tested for mycoplasma using DAPI staining and the LookOut Mycoplasma PCR Detection Kit (MP0035, Merck). The cell line was authenticated after thawing by a morphology check, cell proliferation rate evaluation, and species verification by PCR. Bacteria contamination was excluded. […] Subsequently, cells were subjected to a CellTiter 96 AQueous One Solution Cell Proliferation Assay (Promega), according to the manufacturer’s protocol. The absorbance at 490 nm was evaluated to estimate the cell number.

[2] = parameters: method as in PMID 38190615, PMID 35228010; conditions: LC/MS after biotransformation in rLMs; cited from earlier work
SH-SY5Y cells [3] = assay: qRT-PCR of neurodegeneration-associated genes; format: cell-based, human; conditions: 10 and 50 μM, 24 h
ABCB1 = system: ABCB1; parameters: method as in PMID 35228010; conditions: previous evidence; cited from earlier work
5-HT1AR = conditions: read-out: radioligand binding assay Ki; cloned receptors; cited from earlier work
[4] = parameters: method as in PMID 38190615, PMID 35228010; conditions: cited from earlier work
5-HT2AR = conditions: read-out: radioligand binding assay Ki; cloned receptors; cited from earlier work
NRF2 = assay: Western blot for NRF2 (total and nuclear extracts); format: cell-based, human; conditions: 10 μM, 24 h

SMILES: CN1CCN(c2nc(N)nc(C(C)(C)Sc3ccc4ccccc4c3)n2)CC1 [WA-22, 4-(4-methylpiperazin-1-yl)-6-(2-(naphthalen-2-ylthio)propan-2-yl)-1,3,5-triazin-2-amine]
- hepatotoxic (statistically significant HepG2 viability decrease) (HepG2): >25 µM
- influence on memory compared to vehicle-treated rats (DI) (rats; 1 mg/kg/day i.p., without (+)MK-801): No memory changing
- reversal of (+)MK-801-induced memory disturbances (DI) (rats; 1 mg/kg/day i.p.): significantly reversed
- reversal of (+)MK-801-induced memory disturbances (DI) (rats; 3 mg/kg/day i.p.): also observed for a dose of 3 mg/kg, but memory restoration was not at the same level as that of control rats
- neurotoxic effect (MTS) (SH-SY5Y cells [1]): no significant differences
- metabolic stability, % of remaining structure [2]: 74%
- NRF2 transcription (SH-SY5Y cells [3]): neither WA-22 nor PPK-32 were able to stimulate its transcription
- expression of NQO1, SOD1, and HO1 (SH-SY5Y cells [3]): induces the expression of the same genes, although with a lower significance and increase
- expression of pro-inflammatory gene NFkB (SH-SY5Y cells [3]): neither WA-22 nor PPK-32 were able to downregulate
- ABCB1 inhibition (ABCB1): potent inhibitor of ABCB1
- Ki (5-HT1AR): 2290 nM
- permeability PAMPA Pe [4]: 13.8 × 10^–6 cm/s
- Ki (5-HT2AR): 39 nM
- NRF2 protein amount (total extract) (NRF2; GAPDH loading control): protein amount was not modulated
- NRF2 translocation from cytoplasm to nucleus (NRF2; nuclear extracts, H3 loading control): effectively induce a shuffling of this protein inside the nucleus
